Experimental data reported in patent publication US9844533B2, “Antioxidant-containing food composition for use in inhibiting histamine pathways in companion animals” (Hill's Pet Nutrition, Inc., priority 2008, dated 2017).

Columns and labels:
Format in all cases: cell-based
[1] = system: PLA2G2F (Group IIFA2 secretory phospholipase precursor); assay: Gene expression in four cat cell lines treated with or without lipoic acid; conditions: Table 5; four cat cell lines with vs without lipoic acid; p<0.05
Protocol: (§1) The gene expression data from four cat cell lines treated with lipoic acid was analyzed.

[2] = system: ADCY2 (Adenylate cyclase type 2); assay: as above; conditions: Table 5; four cat cell lines with vs without lipoic acid; p<0.05
Protocol: as §1

[3] = system: ADCY7 (Adenylate cyclase type 7); assay: as above; conditions: Table 5; four cat cell lines with vs without lipoic acid; p<0.05
Protocol: as §1

[4] = system: MAPK1 (Mitogen-activated protein kinase 1); assay: as above; conditions: four cat cell lines with vs without lipoic acid, p<0.05
Protocol: as §1

[5] = system: MAP2K1 (Dual specificity mitogen-activated protein kinase 1); assay: as above; conditions: Table 4; four cat cell lines with vs without lipoic acid; p<0.05
Protocol: as §1

[6] = system: PRKAR1A (cAMP-dependent protein kinase type I-alpha regulatory subunit); assay: as above; conditions: Table 5; four cat cell lines with vs without lipoic acid; p<0.05
Protocol: as §1

[7] = system: TNF (Tumor necrosis factor precursor); assay: as above; conditions: Table 5; four cat cell lines with vs without lipoic acid; p<0.05
Protocol: as §1

[8] = system: VCAM1 (Vascular cell adhesion protein 1 precursor); assay: as above; conditions: Table 5; four cat cell lines with vs without lipoic acid; p<0.05
Protocol: as §1

[9] = system: NOS3 (Nitric oxide synthase, endothelial); assay: as above; conditions: Table 5; four cat cell lines with vs without lipoic acid; p<0.05
Protocol: as §1

[10] = system: PNPLA8 (Calcium-independent phospholipase A2-gamma); assay: as above; conditions: Table 5; four cat cell lines with vs without lipoic acid; p<0.05
Protocol: as §1

[11] = system: LTC4S (Leukotriene C4 synthase); assay: as above; conditions: Table 4; four cat cell lines with vs without lipoic acid; p<0.05
Protocol: as §1

[12] = system: REL (C-Rel proto-oncogene protein); assay: as above; conditions: Table 5; four cat cell lines with vs without lipoic acid; p<0.05
Protocol: as §1

[13] = system: RELA (Transcription factor p65); assay: as above; conditions: Table 5; four cat cell lines with vs without lipoic acid; p<0.05
Protocol: as §1

[14] = system: histamine release and signaling pathways (gene networks); assay: Gene network enrichment analysis of cat cell lines treated with lipoic acid; conditions: four cat cell lines treated with lipoic acid
Protocol: as §1

[15] = system: GAB2 (GRB2-associated-binding protein 2); assay: Gene expression in four cat cell lines treated with or without lipoic acid (paired t test, GeneGo enrichment); conditions: Table 4; four cat cell lines with vs without lipoic acid; p<0.05
Protocol: as §1

SMILES: O=C(O)CCCCC1CCSS1 (stereo not drawn) [lipoic acid, alpha-lipoic acid]
- Signal (PLA2G2F gene expression change) [1]: 1.061
- Signal (ADCY2 gene expression change) [2]: 0.3925
- Signal (ADCY7 gene expression change) [3]: 0.3988
- Signal (MAPK1 gene expression change) ([4]; Table 4): −0.3117
- Signal (MAPK1 gene expression change) ([4]; Table 5): −0.3117
- Signal (MAP2K1 gene expression change) [5]: −0.1574
- Signal (PRKAR1A gene expression change) [6]: −0.184
- Signal (TNF gene expression change) [7]: 0.1797
- Signal (VCAM1 gene expression change) [8]: −0.7819|
- Signal (NOS3 gene expression change) [9]: −0.5503
- Signal (PNPLA8 gene expression change) [10]: −0.2652
- Signal (LTC4S gene expression change) [11]: −0.4586
- Signal (REL gene expression change) [12]: −0.4264
- Signal (RELA gene expression change) [13]: −0.429
- Regulation of key genes in histamine and IgE signaling networks [14]: down regulated
- Signal (GAB2 gene expression change) [15]: −0.8668
